Source: patent US8653096B2, “Chemokine receptor antagonists and methods of use thereof” (Millennium Pharmaceuticals, Inc., priority 2001, dated 2014)
Where two headings read alike, the source gives them in different places.

Biological target: T1, RANTES/MIP-1α chemokine receptor (CCR1) in THP-1 cell membranes (Homo sapiens, UniProt P32246)
T1 construct: Membranes were prepared from THP-1 cells (ATCC #TIB202); host or cells: THP-1 cells (membrane preparation)
T1 sequence (P32246 1-355): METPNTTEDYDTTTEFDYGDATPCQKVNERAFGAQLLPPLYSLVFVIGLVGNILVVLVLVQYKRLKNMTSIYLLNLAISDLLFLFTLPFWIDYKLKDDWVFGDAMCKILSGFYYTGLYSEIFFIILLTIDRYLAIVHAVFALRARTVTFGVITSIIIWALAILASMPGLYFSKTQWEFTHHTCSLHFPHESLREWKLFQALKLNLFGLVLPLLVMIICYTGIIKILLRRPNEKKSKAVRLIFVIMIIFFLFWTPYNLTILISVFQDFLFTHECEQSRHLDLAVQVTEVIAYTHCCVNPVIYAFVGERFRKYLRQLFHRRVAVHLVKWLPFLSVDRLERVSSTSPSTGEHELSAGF
Experiment: Receptor binding assay: 125I-RANTES or 125I-MIP-1α binding to THP-1 cell membranes
Protocol: Membranes were prepared from THP-1 cells (ATCC #TIB202). Cells were harvested by centrifugation, washed twice with PBS (phosphate-buffered saline), and the cell pellets were frozen at −70 to −85° C. The frozen pellet was thawed in ice-cold lysis buffer consisting of 5 mM HEPES (N-2-hydroxyethylpiperazine-N′-2-ethane-sulfonic acid) pH 7.5, 2 mM EDTA (ethylenediaminetetraacetic acid), 5 μg/ml each aprotinin, leupeptin, and chymostatin (protease inhibitors), and 100 μg/ml PMSF (phenyl methane sulfonyl fluoride—also a protease inhibitor), at a concentration of 1 to 5×10^7 cells/ml. This procedure results in cell lysis. The suspension was mixed well to resuspend all of the frozen cell pellet. Nuclei and cell debris were removed by centrifugation of 400×g for 10 minutes at 4° C. The supernatant was transferred to a fresh tube and the membrane fragments were collected by centrifugation at 25,000×g for 30 minutes at 4° C. The supernatant was aspirated and the pellet was resuspended in freezing buffer consisting of 10 mM HEPES pH 7.5, 300 mM sucrose, 1 μg/ml each aprotinin, leupeptin, and chymostatin, and 10 μg/ml PMSF (approximately 0.1 ml per each 10^8 cells). All clumps were resolved using a minihomogenizer, and the total protein concentration was determined using a protein assay kit (Bio-Rad, Hercules, Calif., cat #500-0002). The membrane solution was then aliquoted and frozen at −70 to −85° C. until needed.
Binding Assays utilized the membranes described above. […] The binding reactions were performed in 60 to 100 μl of a binding buffer consisting of 10 mM HEPES pH 7.2, 1 mM CaCl2, 5 mM MgCl2, and 0.5% BSA (bovine serum albumin), for 60 min at room temperature. The binding reactions were terminated by harvesting the membranes by rapid filtration through glass fiber filters (GF/B or GF/C, Packard) which were presoaked in 0.3% polyethyleneimine. The filters were rinsed with approximately 600 μl of binding buffer containing 0.5 M NaCl, dried, and the amount of bound radioactivity was determined by scintillation counting in a Topcount beta-plate counter.
Specific binding is defined as the total binding minus the non-specific binding; non-specific binding is the amount of cpm still detected in the presence of excess unlabeled Rantes or MIP-1α.

[1] = inhibitor concentration required for 50% inhibition of specific binding, 125I-RANTES or 125I-MIP-1α as ligand, THP-1 cell membranes, read-out: IC50

CCN(CC)CCOC(=O)c1ccc2c(c1)C(=CCCN1CCC(O)(c3ccc(Cl)cc3)CC1)c1cccnc1CO2 [Example 431, 4-(4-Chlorophenyl)-1-[3-(5,11-dihydro-7-(2,2-diethylaminoethyl-1-yl)-oxycarbonyl-[1]benzoxepino[2,3-b]pyridin-5-ylidene)propyl]piperidine-4-ol]
IC50 [1]: < 1000 nM

1-[3-(8-Carboxy-5,11-dihydro[1]benzoxepino[2,3-b]pyridin-5-ylidene)propyl]-4-(4-chlorophenyl)piperidine [Example 161]
IC50 [1]: < 10000 nM

5-Chloro-1′-[3-(5,11-dihydro-7-(2-methoxyethyl)oxy[1]benzoxepino[2,3-b]pyridin-5-ylidene)propyl]spiro[isobenzofuran-1(3H), 4′-piperidine] [Example 197]
IC50 [1]: < 1000 nM

COc1ccc2c(c1)C(=CCN1CCC(O)(c3ccc(Cl)cc3)CC1)c1cccnc1CO2 [Example 57, 4-(4-Chlorophenyl)-1-[3-(5,11-dihydro-7-methoxy[1]benzoxepino [2,3-b]pyridin-5-ylidene)ethyl]piperidin-4-ol]
IC50 [1]: < 10000 nM

COC(=O)C1(C)CN(CCC=C2c3cc(C(C)(C)O)ccc3OCc3ncccc32)CCC1(O)c1ccc(Cl)cc1 (stereo not drawn) [Example 481, 4-(4-Chloro-phenyl)-4-hydroxy-1-{3-[7-(hydroxyl-1-methyl-ethyl)-11H-10-oxa-1-aza-dibenzo[a,d]cyclohepten-5-ylidene}-propyl]-3-methyl-piperidine-3-carboxylic acid methyl ester]
IC50 [1]: < 1000 nM

CCOC(=O)COCC1(C)CN(CCC=C2c3cc(C(C)(C)O)ccc3OCc3ncccc32)CCC1(O)c1ccc(Cl)cc1 (stereo not drawn) [Example 485, (4-(4-Chloro-phenyl)-4-hydroxy-1-{3 [7-(1-hydroxy-1-methyl-ethyl)-11H-10-oxa-1-aza-dibenzo[a,d]cyclohepten-5-ylidene]-propyl}-3-methyl-piperidin-3-ylmethoxy)-acetic acid ethyl ester]
IC50 [1]: < 1000 nM

4-(4-Chlorophenyl)-1-[3-(5,11-dihydro-7-(1-propoxy)carbonyl-[1]benzoxepino[2,3-b]pyridin-5-ylidene) propyl]piperidine-4-ol [Example 426]
IC50 [1]: < 1000 nM

N#Cc1ccc2c(c1)C(=CCCN1CCC(O)(c3ccc(Cl)cc3)CC1)c1ccccc1CO2 [Example 28, 4-(4-Chlorophenyl)-1-[3-(2-cyano-6,11-dihydrodibenz[b,e]oxepin-11-ylidene)propyl]piperidin-4-ol]
IC50 [1]: < 1000 nM

CC(C)(O)c1ccc2c(c1)C(=CCCN1CCC(N3C(=O)OCC3Cc3ccc(Cl)cc3)CC1)c1cccnc1CO2 (stereo not drawn) [Example 498, 4-(4-Chloro-benzyl)-3-(1-{3-[7-(1-hydroxy-1-methyl-ethyl)-11H-10-oxa-1-aza-dibenzo[a,d]cyclohepten-5-ylidene]-propyl}-piperidin-4-yl)-oxazolidin-2-one]
IC50 [1]: < 10000 nM

OCC(O)COc1ccc2c(c1)C(=CCCN1CCC(O)(c3ccc(Cl)cc3)CC1)c1cccnc1CO2 (stereo not drawn) [Example 205, 4-(4-Chlorophenyl)-1-[3-(5,11-dihydro-7-(1-(2,3-dihydroxy)propyloxy)[1]benzoxepino[2,3-b]pyridin-5-ylidene)propyl]piperidin-4-ol]
IC50 [1]: < 1000 nM

4-(4-Chlorophenyl)-1-[3-(7-carboxymethyl-5,11-dihydro[1]benzoxepino[2,3-b]pyridin-5-ylidene)propyl]piperidin-4-ol [Example 120]
IC50 [1]: < 1000 nM

OC1(c2ccc(Cl)cc2)CCN(CCC=C2c3ccccc3COc3cc(Br)ccc32)CC1 [Example 35, 1-[3-(3-Bromo-6,11-dihydrodibenz [b,e]oxepin-11-ylidene)propyl]-4-(4-chlorophenyl)piperidin-4-ol]
IC50 [1]: < 1000 nM

1-(4-Chlorophenyl)-4-[3-(5,11-dihydro-7-methoxy[1]benzoxepino[2,3-b]pyridin-5-ylidene)propyl]piperazine [Example 71]
IC50 [1]: < 1000 nM

OC1(c2ccc(Cl)cc2)CCN(CCC=C2c3ccccc3COc3ccccc32)CC1 [Example 2, 4-(4-Chlorophenyl)-1-[3-(6,11-dihydrodibenz[b,e]oxepin-11-ylidene)propyl]piperidin-4-ol]
IC50 [1]: < 1000 nM

1-[3-(5,11-Dihydro-7-methoxy[1]benzoxepino[2,3-b]pyridin-5-ylidene)propyl]piperidin-4-ol [Example 61]
IC50 [1]: < 10000 nM

CCOC(=O)C(C)(C)Oc1ccc2c(c1)C(=CCCN1CCC(O)(c3ccc(Cl)cc3)C(C)(C)C1)c1cccnc1CO2 (stereo not drawn) [Example 510, 2-(5-{3-[4-(4-Chloro-phenyl)-4-hydroxy-3,3-dimethyl-piperidin-1-yl]-propylidene}-5,11-dihydro-10-oxa-1-aza-dibenzo[a,d]cyclohepten-7-yloxy)-2-methyl-propionic acid ethyl ester]
IC50 [1]: < 1000 nM

CC(C)NC(=O)Oc1ccc2c(c1)C(=CCCN1CCC(O)(c3ccc(Cl)cc3)C(C)(C)C1)c1cccnc1CO2 (stereo not drawn) [Example 547, Isopropyl-carbamic acid 5-{3-[4-(4-chloro-phenyl)-4-hydroxy-3,3-dimethyl-piperidin-1-yl]-propylidene}-5,11-dihydro-10-oxa-1-aza-dibenzo[a,d]cyclohepten-7-yl ester]
IC50: < 1000 nM

CC(C)(O)c1ccc2c(c1)C(=CCCN1CCC(C(=O)NCc3ccc(Cl)cc3)C1)c1cccnc1CO2 (stereo not drawn) [Example 530]
IC50 [1]: < 20000 nM

1-[3-(7-(1-Carboxy-1-methylethyl)oxy-5,11-dihydro [1]benzoxepino[2,3-b]pyridin-5-ylidene)propyl]-4-(4-chlorophenyl)piperidin-4-ol [Example 139]
IC50 [1]: < 1000 nM

1-[3-(7-(1-Carboxyethyl)oxy-5,11-dihydro[1]benzoxepino[2,3-b]pyridin-5-ylidene)propyl]-4-(4-chlorophenyl)piperidin-4-ol [Example 178]
IC50 [1]: < 1000 nM

4-(2-Chlorophenyl)-1-[3-(5,11-dihydro-7-methoxy[1]benzoxepino[2,3-b]pyridin-5-ylidene)propyl]piperidin-4-ol [Example 76]
IC50 [1]: < 10000 nM

CC(C)(O)c1ccc2c(c1)C(=CCCN1CCC(N(CC(N)=O)Cc3ccc(Cl)cc3)C1)c1cccnc1CO2 (stereo not drawn) [Example 552, 2-[(4-Chloro-benzyl)-(1-{3-[7-(1-hydroxy-1-methyl-ethyl)-11H-10-oxa-1-azadibenzo[a,d]cyclohepten-5-ylidene]-propyl}-pyrrolidin-3-yl)-amino]-acetamide]
IC50 [1]: < 1000 nM

COC(=O)CC1CN(CCC=C2c3cc(C(C)(C)O)ccc3OCc3ncccc32)CCN1c1ccc(Cl)cc1 (stereo not drawn) [Example 558, (1-(4-Chloro-phenyl)-4-{3-[7-(1-hydroxy-1-methyl-ethyl)-11H-10-oxa-1-aza-dibenzo[a,d]cyclohepten-5-ylidene]-propyl}-piperazin-2-yl)-acetic acid methyl ester]
IC50 [1]: < 10000 nM

O=C(O)C1(Oc2ccc3c(c2)C(=CCCN2CCC(O)(c4ccc(Cl)cc4)CC2)c2cccnc2CO3)CCC1 [Example 180, 1-[3-(7-(1-Carboxy)cyclbutoxy-5,11-dihydro[1]benzoxepino[2,3-b]pyridin-5-ylidene)propyl]-4-(4-chlorophenyl)piperidin-4-ol]
IC50 [1]: < 1000 nM

Cc1cc(Cl)ccc1N1CCN(CCC=C2c3cc(C(C)(C)O)ccc3OCc3ncccc32)CC1 [Example 539, 2-(5-{3-[4-(4-Chloro-2-methyl-phenyl)-piperazin-1-yl]-propylidene}-5,11-dihydro-10-oxa-1-aza-dibenzo[a,d]cyclohepten-7-yl)-propan-2-ol]
IC50 [1]: < 10000 nM

COC(=O)c1cc(Cl)ccc1N1CCN(CCC=C2c3cc(C(C)(C)O)ccc3OCc3ncccc32)CC1 [Example 541, 5-Chloro-2-(4-{3-[7-(1-hydroxy-1-methyl-ethyl)-11H-10-oxa-1-aza-dibenzo[a,d]cyclohepten-5-ylidene]-propyl}-piperazin-1-yl)-benzoic acid methyl ester]
IC50 [1]: < 10000 nM

4-(4-Chlorophenyl)-1-[3-(5,11-dihydro-7-ethyl[1]benzoxepino[2,3-b]pyridin-5-ylidene)propyl]piperidin-4-ol [Example 163]
IC50 [1]: < 1000 nM
